Laboratory results: patent US20160220569A1, “CDK4/6 Inhibitor Dosage Formulations For The Protection Of Hematopoietic Stem And Progenitor Cells During Chemotherapy” (G1 Therapeutics, Inc., priority 2015, published 2016)
Like-named read-outs stand apart in the source and are kept apart here.

Experiment: 14-day oral gavage toxicokinetic study in rats
Assay type: in vivo
Details: male, rat, plasma, po; for concentration at 0.5 h / concentration at 1 h / concentration at 4 h / concentration at 8 h / concentration at 12 h / concentration at 24 h / concentration at […] / concentration at 2 h: rats; for half-life: read-out: t½ (converted)
Protocol: Plasma was obtained from blood samples collected from rats in a composite sampling scheme, with 3 samples collected per sex, per dose, at each target collection time, as illustrated in Table 21 to Table 25. Samples were collected from the vehicle control group on Day 1 and Day 14 at 3 hour after administration. […] Blood samples were collected in tubes containing K3EDTA as an anticoagulant and placed on ice until processed to plasma via centrifugation. Samples were stored frozen at −80° C. until shipment to the bioanalytical laboratory for analysis.
The following parameters were determined:
Cmax: Maximum observed plasma concentration (ng/mL).
A value of 0 ng/mL was assigned to all values below the lower limit of quantitation (BLQ, <10.0 ng/mL).
AUC(0-inf): Area under the plasma concentration vs. time curve extrapolated from 0 to infinity (ng*h/mL), calculated as AUC(0-t)+AUC(t-inf) where AUC(t-inf) is calculated as last measurable concentration (CLast) divided by ke, where ke is the elimination rate constant determined by linear regression of the last three analytically measured points on the log plasma concentration vs. time curve. The selection criteria of the data points for inclusion in the calculation of ke required that at least three data points representing the terminal phase (after Tmax) were regressed and that R2≧0.850 when rounded.
CL: Clearance (L/h/kg), calculated as the dose divided by AUC(0-t).
Vd: Volume of distribution (L/kg), calculated as dose divided by the product of ke and AUC(0-inf).
Vdss: Steady state volume of distribution (L/kg), calculated as clearance […] mean residence time, where mean residence time is calculated as the area under the first moment curve divided by AUC(0-t).
t½: Elimination half-life (h), calculated as ln(2)/ke, where ke is the elimination rate constant determined by linear regression. Half-life was defined as not determined if regression criteria (specified in AUC(0-inf) above) were not met.
Cmax/Dose: Normalized Cmax, calculated as Cmax divided by total dose.
AUC/Dose: Normalized AUC, calculated as AUC(0-t) divided by total dose.
ii. Statistical Analysis Mean and standard deviation (SD) were calculated in Watson. Values of BLQ were assigned a value of 0 ng/mL for mean calculations. Concentration values and derived TK parameters were reported to three significant figures.

[1] = 5 mg/kg, oral 5 mg/kg, Study Day 1, Male
[2] = 5 mg/kg, oral 5 mg/kg, Study Day 14, Male

CN1CCN(c2ccc(Nc3ncc4cc5n(c4n3)C3(CCCCC3)CNC5=O)nc2)CC1 [Compound 1, 2′-((5-(4-methylpiperazin-1-yl)pyridin-2-yl)amino)-7′,8′-dihydro-6′H-spiro[cyclohexane-1,9′-pyrazino[1′,2′:1,5]pyrrolo[2,3-d]pyrimidin]-6′-one]
concentration at 0.5 h (5 mg/kg, Individual Compound 1 Plasma Concentration, daily oral 5 mg/kg, Day 1, Male, 0.5 h): 225 ng/mL
concentration at 1 h (5 mg/kg, Individual Compound 1 Plasma Concentration, daily oral 5 mg/kg, Day 1, Male, 1 h): 244 ng/mL
concentration at 4 h (5 mg/kg, Individual Compound 1 Plasma Concentration, daily oral 5 mg/kg, Day 1, Male, 4 h): 562 ng/mL
concentration at 8 h (5 mg/kg, Individual Compound 1 Plasma Concentration, daily oral 5 mg/kg, Day 1, Male, 8 h): 235 ng/mL
concentration at 12 h (5 mg/kg, Individual Compound 1 Plasma Concentration, daily oral 5 mg/kg, Day 1, Male, 12 h): 206 ng/mL
concentration at 24 h (5 mg/kg, Individual Compound 1 Plasma Concentration, daily oral 5 mg/kg, Day 1, Male, 24 h): 26.5 ng/mL
concentration at 0.5 h (5 mg/kg, Individual Compound 1 Plasma Concentration, daily oral 5 mg/kg, Day 14, Male, 0.5 h): 205 ng/mL
concentration at 1 h (5 mg/kg, Individual Compound 1 Plasma Concentration, daily oral 5 mg/kg, Day 14, Male, 1 h): 254 ng/mL
concentration at 4 h (5 mg/kg, Individual Compound 1 Plasma Concentration, daily oral 5 mg/kg, Day 14, Male, 4 h): 512 ng/mL
concentration at 12 h (5 mg/kg, Individual Compound 1 Plasma Concentration, daily oral 5 mg/kg, Day 14, Male, 12 h): 169 ng/mL
concentration at 24 h (5 mg/kg, Individual Compound 1 Plasma Concentration, daily oral 5 mg/kg, Day 14, Male, 24 h): 11.1 ng/mL
concentration at […] (5 mg/kg, Individual Compound 1 Plasma Concentration, daily oral 5 mg/kg, Day 14, Male, […]): 26 ng/mL
concentration at 0.5 h (5 mg/kg, Mean Compound 1 Plasma Concentration, oral 5 mg/kg, Day 1, 0.5 h, Male): 237 ng/mL
concentration at 1 h (5 mg/kg, Mean Compound 1 Plasma Concentration, oral 5 mg/kg, Day 1, 1 h, Male): 194 ng/mL
concentration at 2 h (5 mg/kg, Mean Compound 1 Plasma Concentration, oral 5 mg/kg, Day 1, 2 h, Male): 254 ng/mL
concentration at 4 h (5 mg/kg, Mean Compound 1 Plasma Concentration, oral 5 mg/kg, Day 1, 4 h, Male): 408 ng/mL
concentration at 8 h (5 mg/kg, Mean Compound 1 Plasma Concentration, oral 5 mg/kg, Day 1, 8 h, Male): 276 ng/mL
concentration at 12 h (5 mg/kg, Mean Compound 1 Plasma Concentration, oral 5 mg/kg, Day 1, 12 h, Male): 195 ng/mL
concentration at 24 h (5 mg/kg, Mean Compound 1 Plasma Concentration, oral 5 mg/kg, Day 1, 24 h, Male): 25.6 ng/mL
concentration at […] (5 mg/kg, Mean Compound 1 Plasma Concentration, oral 5 mg/kg, Day 1, […], Male): 16 ng/mL
concentration at 0.5 h (5 mg/kg, Mean Compound 1 Plasma Concentration, oral 5 mg/kg, Day 14, 0.5 h, Male): 298 ng/mL
concentration at 1 h (5 mg/kg, Mean Compound 1 Plasma Concentration, oral 5 mg/kg, Day 14, 1 h, Male): 258 ng/mL
concentration at 2 h (5 mg/kg, Mean Compound 1 Plasma Concentration, oral 5 mg/kg, Day 14, 2 h, Male): 436 ng/mL
concentration at 4 h (5 mg/kg, Mean Compound 1 Plasma Concentration, oral 5 mg/kg, Day 14, 4 h, Male): 421 ng/mL
concentration at 8 h (5 mg/kg, Mean Compound 1 Plasma Concentration, oral 5 mg/kg, Day 14, 8 h, Male): 273 ng/mL
concentration at 12 h (5 mg/kg, Mean Compound 1 Plasma Concentration, oral 5 mg/kg, Day 14, 12 h, Male): 198 ng/mL
concentration at 24 h (5 mg/kg, Mean Compound 1 Plasma Concentration, oral 5 mg/kg, Day 14, 24 h, Male): 16.2 ng/mL
concentration at […] (5 mg/kg, Mean Compound 1 Plasma Concentration, oral 5 mg/kg, Day 14, […], Male): 27.2 ng/mL
AUC(0-inf) [1]: 4850 ng·h/mL
AUC(0-t) [1]: 4680 ng·h/mL
Cmax [1]: 408 ng/mL
Tmax [1]: 4 h
half-life [1]: 4.52 h
AUC(0-inf) [2]: 5120 ng·h/mL
AUC(0-t) [2]: 5030 ng·h/mL
Cmax [2]: 436 ng/mL
Tmax [2]: 2 h
half-life [2]: 3.77 h
concentration at 1 h (15 mg/kg, Individual Compound 1 Plasma Concentration, daily oral 15 mg/kg, Day 1, Male, 1 h): 614 ng/mL
concentration at 2 h (15 mg/kg, Individual Compound 1 Plasma Concentration, daily oral 15 mg/kg, Day 1, Male, 2 h): 759 ng/mL
concentration at 4 h (15 mg/kg, Individual Compound 1 Plasma Concentration, daily oral 15 mg/kg, Day 1, Male, 4 h): 1160 ng/mL
concentration at 8 h (15 mg/kg, Individual Compound 1 Plasma Concentration, daily oral 15 mg/kg, Day 1, Male, 8 h): 696 ng/mL
concentration at 12 h (15 mg/kg, Individual Compound 1 Plasma Concentration, daily oral 15 mg/kg, Day 1, Male, 12 h): 451 ng/mL
concentration at […] (15 mg/kg, Individual Compound 1 Plasma Concentration, daily oral 15 mg/kg, Day 1, Male, […]): 49.7 ng/mL
concentration at 0.5 h (15 mg/kg, Individual Compound 1 Plasma Concentration, daily oral 15 mg/kg, Day 14, Male, 0.5 h): 741 ng/mL
concentration at 1 h (15 mg/kg, Individual Compound 1 Plasma Concentration, daily oral 15 mg/kg, Day 14, Male, 1 h): 1020 ng/mL
concentration at 2 h (15 mg/kg, Individual Compound 1 Plasma Concentration, daily oral 15 mg/kg, Day 14, Male, 2 h): 1350 ng/mL
concentration at 4 h (15 mg/kg, Individual Compound 1 Plasma Concentration, daily oral 15 mg/kg, Day 14, Male, 4 h): 1160 ng/mL
concentration at 8 h (15 mg/kg, Individual Compound 1 Plasma Concentration, daily oral 15 mg/kg, Day 14, Male, 8 h): 1190 ng/mL
concentration at 12 h (15 mg/kg, Individual Compound 1 Plasma Concentration, daily oral 15 mg/kg, Day 14, Male, 12 h): 583 ng/mL
concentration at 24 h (15 mg/kg, Individual Compound 1 Plasma Concentration, daily oral 15 mg/kg, Day 14, Male, 24 h): 61.4 ng/mL
concentration at […] (15 mg/kg, Individual Compound 1 Plasma Concentration, daily oral 15 mg/kg, Day 14, Male, […]): 89.9 ng/mL
concentration at 0.5 h (15 mg/kg, Mean Compound 1 Plasma Concentration, oral 15 mg/kg, Day 1, 0.5 h, Male): 620 ng/mL
concentration at 1 h (15 mg/kg, Mean Compound 1 Plasma Concentration, oral 15 mg/kg, Day 1, 1 h, Male): 810 ng/mL
concentration at 2 h (15 mg/kg, Mean Compound 1 Plasma Concentration, oral 15 mg/kg, Day 1, 2 h, Male): 1060 ng/mL
